# From patent publication US11878013B2, “Isoquinoline derivative, preparing method thereof, and pharmaceutical composition for preventing or treating autophagy related diseases containing the same as an active ingredient” (Korea Research Institute of Chemical Technology, priority 2021, dated 2024)
# Key:
# [1] = test system: Raw 264.7 mouse macrophages; experiment: Cell viability of LPS-treated Raw 264.7 macrophages; assay type: cell-based
# Protocol: Raw 264.7 mouse macrophages were aliquoted in a 96-well plate at the density of 1×10^5 cells/well and stabilized in a 37° C., 5% CO2 incubator for 24 hours. The Raw 264.7 cells were treated with the compound of Example 1 by concentration. After 1 hour, the cells were treated with 1 ug/ml of LPS and cultured for 24 hours. For the measurement of NO production, 40 mg/ml of Griess reagent was prepared and it was mixed with the culture supernatant at the same ratio. The mixture was reacted at room temperature for 15 minutes, and absorbance was measured at 540 nm. Based on the results obtained therefrom, the cell viability and NO production rate were expressed as percentages in terms of LPS.
# zebrafish [2] = experiment: Fatty liver inhibitory effect in tamoxifen-treated zebrafish juvenile fish (LipidGreen2 staining); assay type: in vivo
# Protocol: In order to evaluate the inhibitory efficacy of the novel isoquinoline derivative of the present invention on fatty liver, an experiment was performed as follows using LipidGreen2 staining reagent capable of staining lipid droplets.
# Particularly, the zebrafish used in this Experimental Example were juvenile fish 5 days after fertilization. Healthy juvenile fish were placed in a 24-well plate (10/well), and 1 ml of egg water was added to each well of the plate. As a negative control that could not regulate fatty liver, DMSO diluted at 0.4% was exposed to juvenile fish, and tamoxifen (Sigma-Aldrich, T5648) diluted at 5 μM was exposed to juvenile fish to control […] fatty liver. In order to investigate the fatty liver inhibitory efficacy of the compound of Example 1 of the present invention, the compound (0.5 μM, 1 μM and 5 μM) was mixed with 5 μM tamoxifen and exposed to juvenile fish (final volume of each well: 2 ml). The 24-well plate containing the compound was wrapped in foil to block light, and then incubated in a 28° C. incubator for 22 hours. The plate was washed with egg water 3 times for 5 minutes to remove the compound from each well. For fat-specific staining, LipidGreen2 diluted at 5 μM was exposed to juvenile fish for 30 minutes, and then washed 3 times with egg water for 5 minutes. To evaluate the fatty liver of zebrafish juvenile fish, the developing embryo was anesthetized with Tricaine (4 g/L), and then photographed on 3% methyl cellulose. As the equipment for photographing the developing embryo, a LEICA MZ10F fluorescence microscope, a LEICA DFC425 camera, and Leica Application Suite software (v4.5) were used. For the fluorescence wavelength, a GFP Plants filter set (Excitation 470/40 nm, Emission 525/50 nm) was used. To quantify the liver area and the degree of fat staining of juvenile fish on the image, the area and the fluorescence intensity of the liver part of each image were quantified using ImageJ 1.50i software (National Institutes of Health, USA) and converted into heatmap images.
# hERG channel protein = biological target: T1, hERG channel protein (Homo sapiens, UniProt Q12809); experiment: hERG patch clamp test in HEK-293 cells overexpressing hERG; assay type: cell-based; conditions: at 10 μM
# T1 construct: expressed in transfected cells; host or cells: HEK-293
# Protocol: In order to evaluate the possibility of inducing cardiotoxicity of the compound of Example 1 of the present invention in vivo, the inhibitory potential to the hERG (human ether-a-go-go related gene) K^+ channel protein, known as a main cause of arrhythmias, was tested.
# Next, in order to evaluate the activity of the hERG channel protein using an electrophysiological method, a patch clamp test was performed. The activity of the hERG channel protein was measured using the HEK-293 cell line overexpressing the hERG channel protein. The cells were acclimatized and cultured in a humidified 37° C. 5% CO2 incubator, washed with PBS (phosphate buffer solution) at the time of growth that occupies 70-80% of the culture dish every 2-3 days, and then subcultured by treating with Trypsin-EDTA. For the test, 2×10^5 cells were aliquoted in a 60 mm cell culture dish, and then cultured in a humidified 5% CO2 incubator for 48 hours. The cultured cells were detached by treating Trypsin-EDTA (Gibco, USA), and the flow of K^+ by the hERG channel protein was measured by applying an automated patch clamp equipment (PatchXpress, Molecular Device).
# zebrafish [3] = experiment: Whitening effect: melanin synthesis / melanocyte formation in zebrafish; assay type: in vivo
# Source text: When observing the regeneration of melanin pigment, after inhibiting the formation of melanin pigment, it can be investigated by limiting it to the melanocyte generation pathway, and it is easy to observe the melanin synthesized in the initial stage of development. Therefore, zebrafish is more useful for the study of melanin pigment changes compared to other animal models (Logan D W, Burn S F, Jackson I J. (2006) Regulation of pigmentation in zebrafish melanophores. Pigment Cell Res. 2006 June; 19(3):206-13.).
# Particularly, zebrafish fertilized eggs 10 hours after fertilization were placed in a 24-well plate (10 eggs/well), and 1 ml of egg water was added to each well of the plate. The compound of Example 1 was added to each well at the concentrations of 0.1 μM and 1 μM, so that the final volume of each well was 2 ml. Then, each 24-well plate was wrapped in foil to block light, and then incubated in a 28° C. incubator for 22 hours. At 32 hours after fertilization, in order to photograph the formation of black melanocytes, the chorion of the developing embryo was peeled off using a forcep (Fine Science Tools). After anesthetizing the developing embryo with Tricaine (4 g/L), the embryo was photographed on 3% methyl cellulose. As the equipment for photographing the developing embryo, a LEICA MZ10F fluorescence microscope, a LEICA DFC425 camera, and Leica Application Suite software (v4.5) were used. In all the experimental procedures, egg water sterilized after dissolving 60 mg/L of sea salt (Sigma-Aldrich, S9883) in tertiary distilled water was used as a solution for culturing the developing embryo. As a control group, a solvent control group (0.4% DMSO) and phenylthiourea (200 μM PTU), known as a tyrosinase inhibitor, were used (FIG. 6A).
# In the same manner, experiments were performed with the compound of Comparative Example 1 at the concentrations of 0.5 μM, 1 μM, and 5 μM, and the results are shown in FIG. 6B.
# On the other hand, in order to confirm the ability of the compound of the present invention to inhibit the melanin synthesis of the already generated melanocytes, the following experiment was performed with juvenile fish 60 hours after fertilization. Particularly, juvenile fish 60 hours after fertilization were placed in a 24-well plate (10/well), and 1 ml of egg water was added to each well of the plate. The compound of Example 1 was added to each well at the concentrations of 10 μM and 20 μM, so that the final volume of each well was 2 ml. Then, each 24-well plate was wrapped in foil to block light, and then incubated in a 28° C. incubator for 12 hours. In order to photograph the formation of black melanocytes, the developing embryo was anesthetized with Tricaine (4 g/L), and then the embryo was photographed on 3% methyl cellulose. […]
# T1 sequence (Q12809 whole entry): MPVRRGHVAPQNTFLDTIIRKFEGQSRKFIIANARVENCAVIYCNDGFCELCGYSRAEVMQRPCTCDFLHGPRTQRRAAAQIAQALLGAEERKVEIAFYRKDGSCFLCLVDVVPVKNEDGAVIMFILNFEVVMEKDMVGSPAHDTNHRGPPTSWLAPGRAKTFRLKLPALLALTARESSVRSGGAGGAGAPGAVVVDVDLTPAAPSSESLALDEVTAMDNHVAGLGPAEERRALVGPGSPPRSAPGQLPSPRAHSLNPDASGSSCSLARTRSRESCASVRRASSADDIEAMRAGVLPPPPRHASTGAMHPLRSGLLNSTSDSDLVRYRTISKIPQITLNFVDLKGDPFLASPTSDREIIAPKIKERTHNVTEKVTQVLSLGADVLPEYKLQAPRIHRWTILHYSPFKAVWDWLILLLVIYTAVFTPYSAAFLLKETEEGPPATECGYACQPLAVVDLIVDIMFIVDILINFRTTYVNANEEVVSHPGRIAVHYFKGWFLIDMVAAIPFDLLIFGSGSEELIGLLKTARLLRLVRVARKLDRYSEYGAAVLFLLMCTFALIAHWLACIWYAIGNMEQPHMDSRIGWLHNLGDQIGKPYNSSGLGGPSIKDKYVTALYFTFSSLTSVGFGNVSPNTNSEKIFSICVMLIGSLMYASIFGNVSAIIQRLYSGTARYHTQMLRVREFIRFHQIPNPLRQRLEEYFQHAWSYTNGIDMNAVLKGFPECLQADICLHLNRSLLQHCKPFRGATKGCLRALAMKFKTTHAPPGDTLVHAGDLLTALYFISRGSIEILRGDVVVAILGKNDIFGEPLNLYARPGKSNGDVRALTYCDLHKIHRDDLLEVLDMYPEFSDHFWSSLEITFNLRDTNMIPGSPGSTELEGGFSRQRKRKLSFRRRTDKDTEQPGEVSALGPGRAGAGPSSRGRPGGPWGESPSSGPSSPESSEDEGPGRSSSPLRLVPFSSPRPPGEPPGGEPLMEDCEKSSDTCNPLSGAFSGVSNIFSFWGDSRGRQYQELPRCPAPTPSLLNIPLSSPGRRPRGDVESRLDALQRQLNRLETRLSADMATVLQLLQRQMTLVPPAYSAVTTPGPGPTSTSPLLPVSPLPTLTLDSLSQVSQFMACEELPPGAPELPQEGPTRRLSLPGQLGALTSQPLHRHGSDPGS
structure (smiles),measurement,setting,value
"[O-][S+](c1ccc(F)cc1)c1nccc2ccccc12 (stereo not drawn) [Example 1, 1-((4-Fluorophenyl)Sulfinyl)Isoquinoline]",cytotoxicity,"[1]; LPS-treated Raw 264.7, 0.1, 0.5, 1, 10 and 100 μM (FIG. 3)",no significant cytotoxicity
same,Cell viability (% of control),"[1]; LPS-treated Raw 264.7 cells, 24 hours, test concentration not given",90 % of control
same,fatty liver (LipidGreen2 fat staining),"zebrafish [2]; 0.5, 1 and 5 μM mixed with 5 μM tamoxifen, 22 hours, juvenile fish 5 days after fertilization",restored to the normal level
same,liver area,"zebrafish [2]; compound mixed with 5 μM tamoxifen, 22 hours (FIG. 8 top)",maintained at the liver area level of normal juvenile fish
same,fluorescence intensity of liver (LipidGreen2),"zebrafish [2]; compound mixed with 5 μM tamoxifen, compared to tamoxifen group (FIG. 8 bottom)",decreased to the normal level
same,inhibition of the activity of the hERG channel protein,hERG channel protein,about 10%
same,synthesis of melanin,"zebrafish [3]; 1 μM, treated 10 hours after fertilization, read at 32 hours after fertilization, PTU 200 μM as control",level similar to that in the group treated with PTU
same,melanin synthesis inhibitory effect,"zebrafish [3]; 20 μM, treated 60 hours after fertilization, read at 72 hours after fertilization, compared to PTU 0.2 mM",superior melanin synthesis inhibitory effect compared to PTU
same,superior activity compared to Comparative Example 1 (melanin synthesis inhibition),"zebrafish [3]; 32 hours after fertilization, 1 μM vs 5 μM for PTU-like effect",≥ 5 fold
